Results: patent US10611720B2, “Composition for preventing or treating hair loss including benzene diamine derivative” (UNIST(ULSAN NATIONAL INSTITUTE OF SCIENCE AND TECHNOLOGY), priority 2017, dated 2020)

What was measured:
[1] = tested on: human hair follicle dermal papilla cells (hDPCs); assay: Cell viability (MTT) of hDPCs under oligomer Aβ-induced cytotoxicity; conditions: hDPCs treated with 2 nM oligomer Aβ and 25 μg/ml compound, 72 hours, as compared with group (N)
Procedure: In order to examine effects of the benzene diamine derivates of the present disclosure on improvement of cell viability of hair follicular cells, human hair follicle dermal papilla cells (hDPCs) were treated with the benzene diamine derivates, and cell viability was examined. […] Therefore, examination was performed by using oligomer Aβ as a toxic material for hDPC.
In detail, 2×10^3 hDPCs were dispensed in a multi 96-well plate containing a DMEM medium supplemented with 10% FBS, and cultured in a CO2 incubator (Thermo Scientific) at 37° C., 5% CO2 for 24 hours. Thereafter, experiments were performed by using a normal group which was treated with only cells, a control group which was a group treated with 10 μl of 2 nM oligomer Aβ (oAβ) previously synthesized, and an experimental group which is prepared by treating the normal group with the same concentration of oligomer Aβ and 25 μg/ml of each benzene diamine derivate sample in water or DMSO. To examine cell viability at 72 hours after treatment of the cell line with the sample, 20 μl of 2% MTT solution was added to the cell culture medium. 3 hours later, to terminate the reaction, the culture medium was removed by aspiration, and 50 μl of DMSO was added. 30 minutes later, the reaction was terminated. Thereafter, OD value was measured at 570 nm by using a microplate reader (BioTek, Synergy HT, USA).

COL17A1 = COL17A1 expression in hDPC cells under oligomer Aβ (confocal fluorescence); assay type: cell-based, human; conditions: hDPCs, 2 nM oligomer Aβ + 25 μg/ml compound, 3 days; normal group 143±11, oligomer Aβ control 16±6
Procedure: (§1) As in Example 2, examination was performed by using oligomer Aβ as a cytotoxic material for hDPC.
(§2) At 3 days after treatment of the derivatives, the cells were fixed with 4% paraformaldehyde solution, and washed with PBS, and then fluorescence of ROI (relative fluorescence intensity) was measured at 488 nm by a confocal microscope (CONFOCAL, LSM710, Carl Zeiss, Germany) to examine SOX-9 and Cola17a1 expressions. As in Example 2, examination was performed by using oligomer Aβ as a cytotoxic material for hDPC.
as §2, with “fluorescence” for “fluorescence of ROI (relative fluorescence intensity)”, “488 nm/565” for “488”, “hDPC. […] COL17A1 expression was inhibited in the cells (control group C) treated with the cytotoxic oligomer Aβ, as compared with the normal group.” for “hDPC.”

SOX-9 [2] = assay: SOX-9 expression in hDPC cells under oligomer Aβ (confocal fluorescence); assay type: cell-based, human; conditions: hDPCs, 2 nM oligomer Aβ + 25 μg/ml compound, 3 days; for SOX-9 expression (average fluorescence intensity): normal group 220±12, oligomer Aβ control 12±4; for SOX-9 expression (confocal imaging, in words): Example 4, compared with cells treated with oligomer Aβ
Procedure: as §1, §2
as §2, with “fluorescence” for “fluorescence of ROI (relative fluorescence intensity)”, “488 nm/565” for “488”, “hDPC. […] COL17A1 expression was inhibited in the cells (control group C) treated with the cytotoxic oligomer Aβ, as compared with the normal group.” for “hDPC.”

monomer/oligomer Aβ = assay: Monomer/oligomer Aβ expression in skin of hair loss mouse model, oral administration; assay type: in vivo; conditions: APP/PS/Tau mice, oral 100 μg/Kg twice a week, 2 months
SOX-2 = SOX-2 expression in skin of hair loss mouse model, oral administration; assay type: in vivo; conditions: APP/PS/Tau mice, oral 100 μg/Kg twice a week, 2 months
Procedure: (§3) Accordingly, the present inventors examined whether expressions of hair growth stimulating factors, SOX-2 and SOX-9 were increased in hair loss animal models by the benzene diamine derivates of the present disclosure. In order to examine SOX-2 and SOX-9 expressions inside skin tissues, APP/PS/Tau mouse which is a hair loss-induced mouse model was selected as a control group and C57BL6 mouse was selected as a normal group, as in Example 5. An experimental group was prepared by orally administering the control group with the benzene diamine derivate at a concentration of 100 μg/Kg/0.1 ml using a zonde twice a week. 2 months later, incision of the skin was performed under local anesthesia, and the skin tissues were fixed in 4% paraformaldehyde solution for 24 hours, and fixed in a plastic mold with O.C.T. Compound (SAKURA, USA) for cryostat sectioning. […] Thereafter, the plate was put on a slide glass and covered with a cover slide, and stored in a dark acrylic box, and fluorescence imaging was observed under a confocal microscope (LSM710, Carl Zeiss, Germany) by 405/488/565 nm laser. […]

[3] = tested on: APP/PS/Tau mouse (hair loss-induced mouse model); assay: Hair growth change in hair loss mouse model, oral administration; assay type: in vivo; conditions: APP/PS/Tau mice, oral 100 μg/Kg twice a week for 2 months
Procedure: An experimental group was prepared by orally administering the control group with the benzene diamine derivate at a concentration of 100 μg/Kg/0.1 ml using a zonde twice a week, and then changes in appearance were observed.
In detail, APP/PS/Tau was purchased from Jackson lab (BAR HARBOR, USA), and APP/Tau female and APP/PSen1de9 purchased from Taconic (Hudson, USA) were cross-mated for 6 generations, and 4-month-old mouse models were obtained from F1. The mouse models were characterized by appearance of hair loss. The hair loss mouse models were divided into groups of 6 mice, and among the hair loss mouse models, the normal group and the control group were orally administered with a phosphate buffer carrier (PBS) for 2 months, and the experimental group was orally administered with 100 μl of N^1-(pyridin-2-ylmethyl)benzene-1,4-diamine (Compound 1) at a concentration of 100 μg/Kg twice a week for 2 months. Thereafter, changes in their appearance were compared.

SOX-9 [4] = assay: SOX-9 expression in skin of hair loss mouse model, oral administration; assay type: in vivo; conditions: APP/PS/Tau mice, oral 100 μg/Kg twice a week, 2 months
Procedure: as §3

| SMILES | cell viability [1] | COL17A1 expression (average fluorescence intensity) (COL17A1) | SOX-9 expression (average fluorescence intensity) (SOX-9 [2]) | monomer/oligomer Aβ expression in skin (monomer/oligomer Aβ) | SOX-2 expression in skin (SOX-2) | hair loss (changes in appearance) [3] | SOX-9 expression in skin (SOX-9 [4]) | SOX-9 expression (confocal imaging, in words) (SOX-9 [2]) |
| --- | --- | --- | --- | --- | --- | --- | --- | --- |
| c1ccc(CNc2ccc(N3CCOCC3)cc2)nc1 [Compound 2, 4-morpholino-N-(pyridin-2-ylmethyl)aniline] | 87±5% | 234±31 AFI | 187±23 AFI |  |  |  |  |  |
| CC(=O)Nc1ccc(NC(C)=O)cc1 [Compound 6, N,N-(1,4-phenylene)diacetate Amide] | 86±1% | 226±34 AFI | 267±56 AFI |  |  |  |  |  |
| Nc1ccc(NCc2ccccn2)cc1 [Compound 1, N^1-(pyridin-2-ylmethyl)benzene-1,4-diamine] | 82±2% | 152±13 AFI | 134±23 AFI | decreased | remarkably expressed close to the normal group | remarkable improvement in hair loss | remarkably increased |  |
| CN(C)c1ccc(N)cc1 [Compound 3, N^1,N^1-dimethyl-1,4-phenylenediamine] |  | 24±6 AFI | 157±21 AFI |  |  |  |  |  |
| CC(=O)Nc1ccc(N(C)C)cc1 [Compound 4, N-(4-dimethylamino)phenyleneacetamide] | 74±3% | 2±1 AFI | 446±110 AFI |  |  |  |  | more strongly promoted the expression |
| CC(=O)Nc1ccc(N)cc1 [Compound 5, N-(4-aminophenyl)acetamide] | 77±1% | 3±1 AFI | 325±45 AFI |  |  |  |  | more strongly promoted the expression |
